In ChEMBL document CHEMBL1201862, “PubChem BioAssay data set” (2004):
Several values for one entry are separate records, joined by “and”; a condition that tells them apart may be missing. Equal values may be shown once.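 Five compound concentrations were applied to cells in 96-well plates for 48 hours; endpoints were derived by simple linear interpolation of the resulting dose-response curve. Here, GI50 denotes the concentration required for 50% inhibition of growth.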 Activity calls are given as the source filed them. No stated cut-off is given here; in the data, active = GI50 up to about 1.1 µM and inactive = higher.

Experiments:
Test in all cases: NCI tumour cell line growth inhibition, 48 h
786-0 = tested on: 786-0
COLO 205 = tested on: COLO 205
HCT-116 = tested on: HCT-116
K562 = tested on: K562
KM12 = tested on: KM12
LOX IMVI = tested on: LOX IMVI
M14 = tested on: M14
MOLT-4 = tested on: MOLT-4
NCI-H522 = tested on: NCI-H522
OVCAR-3 = tested on: OVCAR-3
OVCAR-4 = tested on: OVCAR-4
RPMI-8226 = tested on: RPMI-8226
SF-295 = tested on: SF-295
SK-MEL-28 = tested on: SK-MEL-28
SK-MEL-2 = tested on: SK-MEL-2
SK-MEL-5 = tested on: SK-MEL-5
U-251 = tested on: U-251
EKVX = tested on: EKVX
UO-31 = tested on: UO-31

Measured: GI50

Nc1nc(SCC(=O)c2ccccc2)c2[nH]cnc2n1
inactive: 786-0 > 100 µM | COLO 205 > 100 µM | HCT-116 > 100 µM | K562 > 100 µM | KM12 > 100 µM | LOX IMVI > 100 µM | M14 > 100 µM | MOLT-4 > 100 µM | NCI-H522 > 100 µM | OVCAR-3 > 100 µM | OVCAR-4 > 100 µM | RPMI-8226 > 100 µM | SF-295 > 100 µM | SK-MEL-28 > 100 µM | SK-MEL-2 > 100 µM | SK-MEL-5 > 100 µM | U-251 > 100 µM

COc1ccc(O)c2c1C(=O)CCCC2=O
inactive: 786-0 > 100 µM | COLO 205 > 100 µM | EKVX 40.1 µM | HCT-116 > 100 µM | K562 > 100 µM | KM12 > 100 µM | LOX IMVI > 100 µM | M14 > 100 µM | MOLT-4 > 100 µM | NCI-H522 > 100 µM | OVCAR-3 > 100 µM | OVCAR-4 > 100 µM | RPMI-8226 > 100 µM | SF-295 > 100 µM | SK-MEL-28 > 100 µM | SK-MEL-2 > 100 µM | SK-MEL-5 > 100 µM | U-251 > 100 µM | UO-31 > 100 µM

CCCCCCCCCCCc1c(O)c(=O)c2c(oc3c(=O)c(CCCCCCCCCCC)c(O)c(=O)c3n2-c2ccc(N(C)C)cc2)c1=O
inactive: 786-0 17.5 µM | COLO 205 20 µM | EKVX 24 µM | HCT-116 17.6 µM | K562 52.8 µM | KM12 12.9 µM | LOX IMVI 24.2 µM | M14 16.3 µM | MOLT-4 > 100 µM | NCI-H522 58.3 µM | OVCAR-3 18.8 µM | OVCAR-4 16.5 µM | RPMI-8226 91.2 µM | SF-295 21.8 µM | SK-MEL-28 18 µM | SK-MEL-2 21.7 µM | SK-MEL-5 18.7 µM | U-251 21.4 µM

C1=c2ccccc2=C2C(=C(c3ccccc3)C(c3ccccc3)=NN2c2ccccc2)S1
inactive: 786-0 58.6 µM | COLO 205 > 100 µM | EKVX > 100 µM | HCT-116 > 100 µM | K562 > 100 µM | KM12 > 100 µM | LOX IMVI > 100 µM | M14 > 100 µM | MOLT-4 > 100 µM | NCI-H522 > 100 µM | OVCAR-4 > 100 µM | RPMI-8226 > 100 µM | SF-295 > 100 µM | SK-MEL-28 > 100 µM | SK-MEL-2 > 100 µM | SK-MEL-5 > 100 µM | U-251 46.7 µM | UO-31 > 100 µM

CN(C)c1nc(Oc2nc(N(C)C)nc(N(C)C)n2)nc(N(C)C)n1
inactive: 786-0 > 100 µM | COLO 205 22.1 µM | EKVX > 100 µM | HCT-116 > 100 µM | K562 59.2 µM | KM12 62.5 µM | LOX IMVI > 100 µM | M14 > 100 µM | MOLT-4 > 100 µM | NCI-H522 70.8 µM | OVCAR-3 46 µM | OVCAR-4 > 100 µM | RPMI-8226 63.5 µM | SF-295 > 100 µM | SK-MEL-28 > 100 µM | SK-MEL-2 > 100 µM | SK-MEL-5 > 100 µM | U-251 75.2 µM | UO-31 > 100 µM

C/C(=N\NS(=O)(=O)c1ccc(C)cc1)C(CN1CCCCC1)C(c1ccccc1)c1c(O)c2ccccc2oc1=O (centres undefined)
inactive: 786-0 > 100 µM | COLO 205 > 100 µM | EKVX > 100 µM | HCT-116 > 100 µM | K562 > 100 µM | KM12 > 100 µM | LOX IMVI > 100 µM | M14 > 100 µM | NCI-H522 80.9 µM | OVCAR-3 > 100 µM | OVCAR-4 > 100 µM | RPMI-8226 > 100 µM | SF-295 > 100 µM | SK-MEL-2 > 100 µM | SK-MEL-5 > 100 µM | U-251 > 100 µM | UO-31 > 100 µM

Cc1ccc(NC(=O)C(=O)CC(=O)c2c(C)[n+]([O-])c3ccccc3[n+]2[O-])cc1
inactive: 786-0 40.6 µM | COLO 205 23.9 µM | EKVX 16.9 µM | HCT-116 18.6 µM | K562 21.5 µM | KM12 29.2 µM | LOX IMVI 20 µM | M14 23.9 µM | MOLT-4 23.4 µM | NCI-H522 20.9 µM | OVCAR-3 12 µM | OVCAR-4 22.6 µM | RPMI-8226 24.4 µM | SF-295 51.1 µM | SK-MEL-28 46.6 µM | SK-MEL-2 21 µM | SK-MEL-5 26.8 µM | U-251 31 µM | UO-31 > 100 µM

O=C1c2cc(Br)ccc2-c2ccc3c4ccc5c6c(ccc(c7ccc1c2c73)c64)C(=O)c1cc(Br)ccc1-5
inactive: 786-0 > 100 µM | COLO 205 > 100 µM | EKVX > 100 µM | HCT-116 > 100 µM | K562 > 100 µM | KM12 > 100 µM | LOX IMVI > 100 µM | M14 > 100 µM | NCI-H522 > 100 µM | OVCAR-3 > 100 µM | RPMI-8226 > 100 µM | SK-MEL-28 > 100 µM | SK-MEL-2 > 100 µM | SK-MEL-5 > 100 µM | U-251 > 100 µM | UO-31 > 100 µM

CS(=O)(=O)Sc1ccc(Cl)cc1
inactive: 786-0 6.32 µM | COLO 205 3.52 µM | EKVX 3.82 µM | HCT-116 5.7 µM | K562 10.2 µM | KM12 7.19 µM | LOX IMVI 3.36 µM | M14 12.8 µM | MOLT-4 3.53 µM | NCI-H522 3.24 µM | OVCAR-3 5.87 µM | OVCAR-4 13.7 µM | RPMI-8226 10.9 µM | SF-295 3.04 µM | SK-MEL-28 11.5 µM | SK-MEL-2 6.84 µM | SK-MEL-5 7.83 µM | U-251 2.84 µM | UO-31 3.29 µM

Clc1ccc(/N=N/c2nc3ccccc3nc2/N=N/c2ccc(Cl)cc2Cl)c(Cl)c1
inactive: 786-0 85.5 µM | COLO 205 > 100 µM | EKVX > 100 µM | HCT-116 > 100 µM | K562 44.6 µM | KM12 > 100 µM | LOX IMVI > 100 µM | MOLT-4 29.4 µM | NCI-H522 60.1 µM | OVCAR-3 70 µM | OVCAR-4 > 100 µM | RPMI-8226 > 100 µM | SF-295 > 100 µM | SK-MEL-28 > 100 µM | SK-MEL-2 > 100 µM | U-251 > 100 µM | UO-31 > 100 µM

COc1cc(/C=C/C(=O)c2sc(NNC(C)=O)nc2C)ccc1O
inactive: 786-0 > 100 µM | COLO 205 > 100 µM | EKVX > 100 µM | K562 > 100 µM | KM12 > 100 µM | LOX IMVI > 100 µM | MOLT-4 > 100 µM | NCI-H522 > 100 µM | OVCAR-3 > 100 µM | RPMI-8226 > 100 µM | SF-295 > 100 µM | SK-MEL-28 > 100 µM | SK-MEL-2 > 100 µM | SK-MEL-5 > 100 µM | U-251 > 100 µM | UO-31 > 100 µM

O=C1[C@H]2ON(c3ccccc3)C(c3cccc([N+](=O)[O-])c3)[C@H]2C(=O)N1c1ccc(Cc2ccc(N3C(=O)[C@@H]4ON(c5ccccc5)C(c5cccc([N+](=O)[O-])c5)[C@@H]4C3=O)cc2)cc1 (some centres undefined)
inactive: 786-0 > 100 µM | COLO 205 42.3 µM | EKVX > 100 µM | HCT-116 > 100 µM | K562 > 100 µM | KM12 > 100 µM | LOX IMVI > 100 µM | M14 21.6 µM | MOLT-4 > 100 µM | NCI-H522 > 100 µM | OVCAR-3 > 100 µM | OVCAR-4 > 100 µM | RPMI-8226 > 100 µM | SF-295 > 100 µM | SK-MEL-28 > 100 µM | SK-MEL-2 > 100 µM | SK-MEL-5 43.9 µM | U-251 > 100 µM | UO-31 > 100 µM

CC(O)C1OC(n2ccc(=O)[nH]c2=O)CC1n1cncn1 (centres undefined)
inactive: 786-0 > 100 µM | COLO 205 > 100 µM | EKVX > 100 µM | HCT-116 > 100 µM | K562 > 100 µM | KM12 > 100 µM | LOX IMVI > 100 µM | M14 > 100 µM | MOLT-4 > 100 µM | NCI-H522 > 100 µM | OVCAR-3 > 100 µM | OVCAR-4 > 100 µM | RPMI-8226 > 100 µM | SF-295 > 100 µM | SK-MEL-28 > 100 µM | SK-MEL-2 > 100 µM | SK-MEL-5 > 100 µM | U-251 > 100 µM | UO-31 > 100 µM and 98.9 µM

O=C(O)C12C3CCCC1C2CC3 (centres undefined)
inactive: 786-0 > 100 µM | COLO 205 > 100 µM | EKVX > 100 µM | HCT-116 > 100 µM | K562 > 100 µM | KM12 > 100 µM | LOX IMVI > 100 µM | M14 > 100 µM | MOLT-4 > 100 µM | NCI-H522 > 100 µM | OVCAR-3 > 100 µM | RPMI-8226 > 100 µM | SF-295 > 100 µM | SK-MEL-28 > 100 µM | SK-MEL-2 > 100 µM | SK-MEL-5 > 100 µM | U-251 > 100 µM | UO-31 > 100 µM

CCCCCC#COC1CC(C)CC[C@@H]1C(C)C (some centres undefined)
inactive: 786-0 > 100 µM | COLO 205 > 100 µM | EKVX 42.7 µM | HCT-116 57.7 µM | K562 27.9 µM | KM12 98.9 µM | LOX IMVI 15.6 µM | M14 > 100 µM | NCI-H522 24.5 µM | OVCAR-3 > 100 µM | OVCAR-4 > 100 µM | RPMI-8226 26.4 µM | SF-295 39.2 µM | SK-MEL-28 > 100 µM | SK-MEL-2 > 100 µM | SK-MEL-5 > 100 µM | U-251 42.3 µM | UO-31 50.4 µM
